Source: article PMC10093841 (International Journal of Molecular Sciences, 2023)
“Also recorded” adds a separate entry of the source. Where two headings read alike, the source gives them in different places.

Legend:
[1] = Hydrogen peroxide scavenging assay (1,10-phenanthroline); conditions: cell-free, concentration range 0–1000 μg/mL
Experimental: Briefly, 0.25 mL of ferrous ammonium sulfate (1 mM) solution was mixed with 1.5 mL of different concentrations (from 6 to 500 μg/mL) of carvacrol, p-cymene; acid gallic was used as a positive control. Then, 62.5 µL of H2O2 (5 mM) was added and the mixture was incubated at room temperature in the dark for 5 min. Then, 1.5 mL of 1,10-phenanthroline (1 mM) was added to each tube, mixed, and incubated for 10 min at room temperature. Finally, the absorbance was measured at 510 nm through a spectrophotometer (Thermo Scientific Multiskan GO, Monza, Italy).

[2] = tested on: AChE; conditions: carvacrol stronger than its isomer thymol; cited from earlier work
[3] = molecular target: T1, acetylcholinesterase (AChE) type VI-S from Electrophorus electricus (Electrophorus electricus, UniProt O42275); experiment: Cholinesterase inhibition, Ellman's colorimetric method (AChE); format: biochemical
T1 construct: purchased Sigma-Aldrich
Experimental: (§1) Anti-GAPDH antibody and enhanced chemiluminescence reagents were purchased from Santa Cruz Biotechnology (Santa Cruz, CA, USA); horseradish peroxidase-conjugated secondary antibody was purchased from Amersham Biosciences (Pittsburgh, PA, USA). Nitrocellulose was purchased from Biorad (Hercules, CA, USA).
(§2) The cholinesterase inhibition was evaluated by Ellman’s colorimetric method with some modifications. Briefly, in a total volume of 1 mL, 415 µL of Tris-HCl buffer 0.1 M (pH 8), 10 µL of a buffer solution of carvacrol or p-cymene (in methanol) at different concentrations (100, 10, 1 and 0.1 µg/mL), and 25 µL of a solution containing 0.28 U/mL of AChE (or BChE) were incubated for 15 min at 37 °C. […] The absorbance was measured at 405 nm in a spectrophotometer (Thermo Scientific Multiskan GO, Monza, Italy).
(§3) The percent inhibition of enzyme activity for acetylcholinesterase, butyrylcholinesterase, and α-amylase was calculated by comparison with the absorbance of the control without sample, following the formula: % = [(A0 − A1)/A0] × 100(1) where A0 is the absorbance of the control without the sample and A1 is the absorbance of the sample.

[4] = molecular target: T2, porcine pancreatic amylase (Sus scrofa, UniProt P00690); experiment: biochemical
T2 construct: purchased Sigma-Aldrich
Experimental: as §1, §3

[5] = molecular target: T3, butyrylcholinesterase (BChE) from equine serum (Equus caballus, UniProt P81908); experiment: biochemical
T3 construct: purchased Sigma-Aldrich; host or cells: equine serum
Experimental: as §1, §2, §3

[6] = tested on: caspase-3 in SH-SY5Y cells; experiment: Caspase-3 expression (Western blot) in H2O2-induced stress; format: cell-based, Human; conditions: pretreatment 50 μg/mL for 22 h, then H2O2 100 or 200 μM for 2 h
Experimental: To investigate the neuroprotective effects of carvacrol and p-cymene on H2O2-induced stress in SH-SY5Y cells, the cells were assigned to a total of nine groups: Group 1: control (untreated cells); Groups 2 and 3, cells treated with H2O2 alone, at 100 and 200 μM for two h; Groups 4–5: cells treated with carvacrol or p-cymene MNTD (50 µg/mL) Groups 6–9: cells pretreated with carvacrol or p-cymene MNTD for 22 h and then exposed to H2O2 at 100 and 200 μM for another two h. After the cell lysis, we determined the caspase-3 activity. For caspase-3 activity analysis, the SH-SY5Y cells (1 × 10^4) were seeded in separate wells in 12-well plates (Corning, Inc., Corning, NY, USA). The cells were allowed to reach 70–80% confluency before the treatment groups were initiated. The cells were collected after 24 h and lysed using the Laemmli buffer to extract total proteins. For Western blot analysis, an aliquot of total protein was run on 10% SDS-PAGE gel and transferred to nitrocellulose. […] Immunoreactivity was detected through a sequential incubation with horseradish peroxidase-conjugated secondary antibody and enhanced chemiluminescence reagents. Each band density was measured using ImageJ software (WS Rasband, Image J, NIH, Bethesda, MD, USA).

[7] = tested on: BChE; design: method as in doi:10.1007/s10068-015-0093-0; conditions: at a concentration of 2 mg/mL; cited from earlier work

T3 sequence (P81908 whole entry): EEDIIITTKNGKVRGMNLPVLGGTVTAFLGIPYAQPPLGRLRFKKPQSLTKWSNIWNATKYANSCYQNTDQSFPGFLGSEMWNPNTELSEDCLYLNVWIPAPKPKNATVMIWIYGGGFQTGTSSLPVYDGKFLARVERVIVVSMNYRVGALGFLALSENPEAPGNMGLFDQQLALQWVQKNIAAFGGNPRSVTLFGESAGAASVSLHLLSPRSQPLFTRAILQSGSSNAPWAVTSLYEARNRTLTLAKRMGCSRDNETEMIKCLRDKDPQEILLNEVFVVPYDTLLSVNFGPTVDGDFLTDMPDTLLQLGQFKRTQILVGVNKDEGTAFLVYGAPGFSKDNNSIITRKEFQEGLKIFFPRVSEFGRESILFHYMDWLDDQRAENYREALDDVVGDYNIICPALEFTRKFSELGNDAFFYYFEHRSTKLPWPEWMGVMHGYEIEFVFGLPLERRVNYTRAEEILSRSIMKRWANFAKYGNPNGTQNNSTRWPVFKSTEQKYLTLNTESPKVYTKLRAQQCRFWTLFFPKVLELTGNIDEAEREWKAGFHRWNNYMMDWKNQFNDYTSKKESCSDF
T1 sequence (O42275 24-633): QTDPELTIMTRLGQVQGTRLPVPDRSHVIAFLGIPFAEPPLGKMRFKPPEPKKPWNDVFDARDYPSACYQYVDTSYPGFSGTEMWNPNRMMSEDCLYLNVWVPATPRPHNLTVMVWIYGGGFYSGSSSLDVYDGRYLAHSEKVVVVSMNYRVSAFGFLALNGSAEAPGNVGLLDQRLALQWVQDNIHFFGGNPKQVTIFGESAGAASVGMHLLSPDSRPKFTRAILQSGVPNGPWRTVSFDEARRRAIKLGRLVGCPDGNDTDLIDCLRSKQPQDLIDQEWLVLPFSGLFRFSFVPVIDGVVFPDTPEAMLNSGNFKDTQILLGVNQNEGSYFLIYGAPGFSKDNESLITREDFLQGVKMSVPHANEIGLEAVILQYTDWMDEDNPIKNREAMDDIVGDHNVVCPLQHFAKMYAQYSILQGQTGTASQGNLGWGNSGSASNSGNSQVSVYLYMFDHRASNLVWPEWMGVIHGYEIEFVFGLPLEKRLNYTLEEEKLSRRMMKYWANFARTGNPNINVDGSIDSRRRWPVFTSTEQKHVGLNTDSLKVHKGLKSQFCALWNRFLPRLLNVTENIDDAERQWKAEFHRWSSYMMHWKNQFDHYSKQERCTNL
T2 sequence (P00690 16-511): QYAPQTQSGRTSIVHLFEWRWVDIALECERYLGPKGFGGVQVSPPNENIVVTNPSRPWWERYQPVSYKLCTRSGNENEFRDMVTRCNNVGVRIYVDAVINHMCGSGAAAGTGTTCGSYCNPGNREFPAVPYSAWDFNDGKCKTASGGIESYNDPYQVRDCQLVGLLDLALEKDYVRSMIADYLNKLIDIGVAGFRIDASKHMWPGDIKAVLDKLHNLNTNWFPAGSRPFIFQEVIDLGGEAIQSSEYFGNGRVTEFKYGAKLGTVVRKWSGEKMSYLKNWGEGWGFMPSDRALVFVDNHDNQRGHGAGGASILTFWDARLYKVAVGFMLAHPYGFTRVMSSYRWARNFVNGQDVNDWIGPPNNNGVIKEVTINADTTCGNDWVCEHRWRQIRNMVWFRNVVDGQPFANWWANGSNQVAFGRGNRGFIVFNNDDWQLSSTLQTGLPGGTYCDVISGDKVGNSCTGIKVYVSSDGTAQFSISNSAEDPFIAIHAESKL

Compound | H2O2 scavenging activity [1] | inhibitory effect relative to thymol [2] [times] | IC50 [3] [µM] | IC50 ([4]; read-out: IC50 α-Amylase (converted)) [µM] | IC50 ([5]; concentration required to reduce the enzymatic activity by 50%, read-out: IC50 BChE (converted)) [µM] | caspase-3 expression [6] | inhibition of BChE activity [7] [%] | IC50 [4] [µM] | IC50 [5] [µM]
Cc1ccc(C(C)C)cc1O [Carvacrol] | more active than p-cymene | 10 | 25.3 | 1140 | 218 | reduced; also recorded: caspase-3 was inhibited |  |  | 
Cc1ccc(C(C)C)c(O)c1 [Thymol] |  |  |  |  |  |  | 42.2 |  | 
Cc1ccc(C(C)C)cc1 [p-Cymene] |  |  | 113 |  |  |  |  | 1600 | 10800
